Experimental data published in the supplement of paper PMC10307832.

What was measured:
Experiment in all cases: relative viability (nuclei count vs DMSO), 5 days (fraction); higher = more cells survive
KN-93 + Linsitinib = compound: CN(C/C=C/C1=CC=C(C=C1)Cl)CC2=CC=CC=C2N(CCO)S(=O)(=O)C3=CC=C(C=C3)OC [KN-93] + C[C@]1(O)C[C@@H](c2nc(-c3ccc4ccc(-c5ccccc5)nc4c3)c3c(N)nccn32)C1 [Linsitinib] (partner 1 µM)
Method in brief: (§1)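 Lung cancer cell lines were seeded in 1536-well plates and dosed by pin tool the next day, with either a single drug or a fixed anchor-drug dose combined with five library-drug doses (not always all listed) spaced in √10 steps. Five days later, one step fixed the cells and stained their nuclei (final 0.05% Triton X-100, 1% formaldehyde, 1 ug/ml Hoechst), and nuclei were counted on 4× images. Relative viability is the nuclei count in treated wells divided by the count in vehicle wells, and each value is the median of duplicate plates.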

KN-93 + Trametinib = compound: CN(C/C=C/C1=CC=C(C=C1)Cl)CC2=CC=CC=C2N(CCO)S(=O)(=O)C3=CC=C(C=C3)OC [KN-93] + CC(=O)Nc1cccc(-n2c(=O)n(C3CC3)c(=O)c3c(Nc4ccc(I)cc4F)n(C)c(=O)c(C)c32)c1 [Trametinib] (partner 0.02 µM)
Method in brief: as §1

KN-93 + Pemetrexed = compound: CN(C/C=C/C1=CC=C(C=C1)Cl)CC2=CC=CC=C2N(CCO)S(=O)(=O)C3=CC=C(C=C3)OC [KN-93] + Nc1nc2[nH]cc(CCc3ccc(C(=O)N[C@@H](CCC(=O)O)C(=O)O)cc3)c2c(=O)[nH]1 [Pemetrexed] (partner 0.2 µM)
Method in brief: as §1

KN-93 + Olaparib = compound: CN(C/C=C/C1=CC=C(C=C1)Cl)CC2=CC=CC=C2N(CCO)S(=O)(=O)C3=CC=C(C=C3)OC [KN-93] + O=C(c1cc(Cc2n[nH]c(=O)c3ccccc23)ccc1F)N1CCN(C(=O)C2CC2)CC1 [Olaparib] (partner 8 µM)
Method in brief: as §1

KN-93 + Crizotinib = compound: CN(C/C=C/C1=CC=C(C=C1)Cl)CC2=CC=CC=C2N(CCO)S(=O)(=O)C3=CC=C(C=C3)OC [KN-93] + C[C@@H](Oc1cc(-c2cnn(C3CCNCC3)c2)cnc1N)c1c(Cl)ccc(F)c1Cl [Crizotinib] (partner 1 µM)
Method in brief: as §1

Cell Line | relative viability (KN-93 + Linsitinib; first compound 0.08 µM) | relative viability (KN-93 + Linsitinib; first compound 0.253 µM) | relative viability (KN-93 + Linsitinib; first compound 2.53 µM) | relative viability (KN-93 + Linsitinib; first compound 8 µM) | relative viability (KN-93 + Trametinib; first compound 0.08 µM) | relative viability (KN-93 + Trametinib; first compound 0.253 µM) | relative viability (KN-93 + Trametinib; first compound 2.53 µM) | relative viability (KN-93 + Trametinib; first compound 8 µM) | relative viability (KN-93 + Pemetrexed; first compound 0.08 µM) | relative viability (KN-93 + Pemetrexed; first compound 0.253 µM) | relative viability (KN-93 + Pemetrexed; first compound 2.53 µM) | relative viability (KN-93 + Pemetrexed; first compound 8 µM) | relative viability (KN-93 + Olaparib; first compound 0.08 µM) | relative viability (KN-93 + Olaparib; first compound 0.253 µM) | relative viability (KN-93 + Olaparib; first compound 2.53 µM) | relative viability (KN-93 + Olaparib; first compound 8 µM) | relative viability (KN-93 + Crizotinib; first compound 0.08 µM) | relative viability (KN-93 + Crizotinib; first compound 0.253 µM) | relative viability (KN-93 + Crizotinib; first compound 2.53 µM) | relative viability (KN-93 + Crizotinib; first compound 8 µM)
LXF-289 | 0.963 | 1 | 0.964 | 0.652 | 0.661 | 0.69 | 0.666 | 0.592 | 0.925 | 0.926 | 0.977 | 0.684 | 0.903 | 1.18 | 1.25 | 0.955 | 0.782 | 0.913 | 0.825 | 0.532
NCI-H23 | 0.522 | 0.617 | 0.659 | 0.53 | 0.331 | 0.397 | 0.432 | 0.326 | 0.685 | 0.866 | 0.883 | 0.502 | 0.3 | 0.251 | 0.407 | 0.233 | 0.446 | 0.54 | 0.574 | 0.534
NCI-H322M | 0.988 | 0.935 | 0.958 | 0.803 | 0.478 | 0.575 | 0.488 | 0.442 | 0.641 | 0.628 | 0.701 | 0.614 | 0.766 | 0.817 | 0.706 | 0.689 | 1.08 | 0.982 | 0.896 | 0.905
NCI-H358 | 0.631 | 0.81 | 0.634 | 0.353 | 0.147 | 0.133 | 0.132 | 0.112 | 0.166 | 0.182 | 0.169 | 0.157 | 0.678 | 0.638 | 0.608 | 0.502 | 0.565 | 0.568 | 0.519 | 0.426
NCI-H441 | 0.48 | 0.818 | 0.799 | 0.245 | – | 0.422 | 0.401 | 0.177 | – | 0.242 | 0.293 | 0.268 | – | 0.799 | 0.531 | 0.467 | 0.716 | 0.879 | 0.76 | 0.565
NCI-H460 | 0.466 | 1.14 | 0.805 | 0.375 | 0.167 | 0.111 | 0.195 | 0.0953 | 0.0661 | 0.0588 | 0.0591 | 0.0687 | 0.286 | 0.468 | 0.586 | 0.305 | 0.387 | 0.985 | 1.33 | 0.449
NCI-H520 | – | 1.21 | 1.12 | 0.682 | 0.591 | 0.783 | 0.682 | 0.641 | 0.72 | 0.738 | 0.658 | 0.422 | 0.312 | 0.312 | 0.282 | 0.272 | – | 1.08 | 0.759 | 0.586
NCI-H596 | 1 | 1.19 | 1.03 | 0.89 | 0.708 | 0.847 | 0.836 | 0.586 | 0.528 | 0.493 | 0.589 | 0.455 | 0.737 | 0.507 | 0.658 | 0.642 | 0.906 | 1.09 | 1.03 | 0.691
NCI-H647 | 1.33 | 1.5 | 1.65 | 0.952 | 0.353 | 0.499 | 0.468 | 0.466 | 0.176 | 0.181 | 0.159 | 0.174 | 0.648 | 0.766 | 0.881 | 0.421 | 0.916 | 1.48 | 1.13 | 0.511
NCI-H650 | 0.893 | 0.836 | 1.21 | 0.562 | 0.933 | 1.08 | 0.998 | 0.794 | 1.02 | 0.993 | 1.04 | 0.788 | 0.425 | 0.366 | 0.368 | 0.397 | 0.866 | 0.735 | 0.772 | 0.488
NCI-H661 | 0.502 | 0.531 | 0.433 | 0.562 | 0.525 | 0.563 | 0.472 | 0.383 | 0.89 | 1.15 | 0.753 | 0.504 | 0.577 | 0.951 | 0.64 | 0.4 | 0.855 | 0.875 | 0.988 | 0.761
NCI-H838 | 0.989 | 0.905 | 1.15 | 0.771 | 0.563 | 0.482 | 0.522 | 0.509 | 0.258 | 0.278 | 0.25 | 0.214 | 0.939 | 0.709 | 1.18 | 0.613 | 0.764 | 0.86 | 0.94 | 0.7
NCI-H1355 | 0.732 | 0.769 | 0.805 | 0.699 | 0.436 | 0.324 | 0.375 | 0.343 | 1.11 | 0.918 | 1.27 | 0.972 | 0.628 | 0.67 | 0.766 | 0.477 | 0.915 | 1.11 | 1.15 | 0.837
NCI-H1437 | 0.879 | 1.41 | 1.04 | 0.487 | 0.444 | 0.471 | 0.454 | 0.377 | 0.317 | 0.312 | 0.247 | 0.19 | 0.626 | 0.683 | 0.564 | 0.456 | 0.851 | 1.27 | 0.894 | 0.47
NCI-H1651 | 0.816 | 1.33 | 1.11 | 0.622 | 0.79 | 0.886 | 0.689 | 0.683 | 0.611 | 0.701 | 0.567 | 0.511 | 0.203 | 0.178 | 0.199 | 0.179 | 0.846 | 0.959 | 0.9 | 0.732
NCI-H1666 | 0.837 | 0.672 | 1.11 | 0.588 | 0.899 | 0.788 | 1.07 | 0.716 | 0.844 | 1 | 0.818 | 0.821 | 0.726 | 0.716 | 0.702 | 0.762 | 0.939 | 0.837 | 0.998 | 0.626
NCI-H1734 | 0.855 | 0.949 | 1.03 | 0.734 | 0.624 | 0.775 | 0.653 | 0.405 | 0.457 | 0.478 | 0.399 | 0.417 | 0.496 | 0.677 | 0.611 | 0.518 | 0.646 | 0.752 | 0.74 | 0.421
NCI-H1755 | 1.01 | 1.05 | 1.05 | 0.837 | 0.717 | 0.827 | 0.76 | 0.699 | 0.455 | 0.432 | 0.453 | 0.44 | 0.806 | 0.804 | 0.909 | 0.827 | 0.86 | 1.14 | 0.903 | 0.566
NCI-H1792 | – | 0.573 | 0.567 | 0.394 | 0.277 | 0.441 | 0.487 | 0.275 | 0.605 | 0.909 | 0.971 | 0.513 | 0.351 | 0.312 | 0.392 | 0.311 | – | 1.1 | 0.976 | 0.914
NCI-H1915 | 1.03 | 1.16 | 1.12 | 1.03 | 0.304 | 0.339 | 0.281 | 0.247 | 0.471 | 0.601 | 0.515 | 0.506 | 0.248 | 0.264 | 0.276 | 0.255 | 0.705 | 1.35 | 0.953 | 0.859
NCI-H1944 | 1.29 | 1.21 | 1.11 | 1.02 | 0.419 | 0.385 | 0.432 | 0.328 | 0.599 | 0.598 | 0.545 | 0.57 | 0.356 | 0.378 | 0.401 | 0.334 | 1.24 | 1.24 | 1.18 | 0.953
NCI-H1975 | 0.789 | 0.943 | 0.992 | 0.546 | 0.29 | 0.291 | 0.307 | 0.179 | 0.277 | 0.299 | 0.309 | 0.221 | 0.534 | 0.839 | 0.826 | 0.456 | 0.721 | 1.2 | 0.875 | 0.581
NCI-H1993 | 0.728 | 0.633 | 0.837 | 0.655 | 0.547 | 0.542 | 0.498 | 0.501 | 0.474 | 0.535 | 0.618 | 0.58 | 0.915 | 0.947 | 1.14 | 0.771 | 0.968 | 0.814 | 0.76 | 0.727
NCI-H2009 | 1.16 | 1.24 | 1.17 | 0.94 | 0.319 | 0.283 | 0.271 | 0.188 | 1.01 | 1.07 | 1.1 | 0.796 | 0.683 | 0.815 | 0.656 | 0.528 | 1.18 | 1.1 | 1.04 | 0.474
NCI-H2023 | 0.613 | 0.669 | 0.657 | 0.532 | 0.55 | 0.459 | 0.628 | 0.434 | 0.244 | 0.247 | 0.325 | 0.14 | 0.454 | 0.542 | 0.606 | 0.324 | 0.795 | 0.855 | 0.745 | 0.439
NCI-H2085 | 0.782 | 0.967 | 0.929 | 0.633 | 0.508 | 0.506 | 0.575 | 0.459 | 0.933 | 0.905 | 0.883 | 0.739 | 0.741 | 0.735 | 0.776 | 0.6 | 0.815 | 1.17 | 0.921 | 0.565
NCI-H2087 | 0.941 | 0.905 | 0.824 | 0.43 | 0.249 | 0.15 | 0.19 | 0.128 | 0.694 | 0.672 | 0.564 | 0.607 | 0.453 | 0.606 | 0.653 | 0.383 | 0.678 | 1.01 | 0.84 | 0.55
